Test results as given in patent EP4043466B1, “PRC2 INHIBITORS” (Mirati Therapeutics, Inc., priority 2018, dated 2019).

Experiments:
[1] = target: purified human, His-tagged PRC2 complex (Homo sapiens, UniProt O75530+Q15910); assay: Hot Spot HMT assay: inhibition of PRC2 enzymatic activity (transfer of tritiated methyl from SAM to core histone, filter binding); assay type: biochemical; details: Inhibition of PRC2-mediated enzymatic activity; 10 nM PRC2 complex, 0.05 mg/ml core histone H3, 1 uM 3H-SAM, 1 hr at 30°C
How it was run: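 Serial compound dilutions starting at 1.0 µM were pre-incubated 20 min at 30°C with 10 nM complex (His-EZH2, Flag-EED, His-SUZ12, His-AEBP2, His-RbAp48) and 0.05 mg/ml core H3. Reaction ran 1 hr at 30°C after adding 1 uM [3H]-SAM; scintillation counting followed filtration.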

Karpas 422 cells = assay: Karpas 422 cell viability, CTG (Cell Titre Glo) assay; assay type: cell-based, human; details: Homo sapiens; Inhibition of proliferation of Karpas 422 cells (EZH2 Y641N); viability measured Day 4, Day 7 or Day 11, time point of the tabulated values not stated
Experimental: Karpas 422 cell line is a human B cell non-Hodgkin's lymphoma cell line established from a patient having DLBCL. This EZH2 heterozygotic cell line expresses a mutant form of EZH2 enzyme (Y641N) that increases histone H3 methylation and this mutation has been implicated in the tumorgenesis of lymphomas, such as DLBCL.
Karpas 422 cells (PHE cat no., 06101702) were cultured in RPMI medium supplemented with 20% fetal bovine serum and 1% penicillin/1% streptomycin and plated at a density of 1000 cells/90 µl/well in 96 well white assay plates. A dose response curve for compounds of the present invention was determined by adding a 10µl aliquot of stock solutions of varying concentrations of compounds to the same medium in each well, over a concentration range of 10µM using 3-fold dilutions to a final concentration of 1.5nM. The plates were incubated at 37° C for predetermined time periods, Day 4, Day 7, or Day 11, and the viability of the cells was measured using a CTG assay kit (Cell Titre Glo; Promega cat.no G7573) on Day 4 and Day 7 in accordance with the manufacturer's instructions.
For the viability assay for the Day 11 plates, the plates were subjected to centrifugation at 1100 rpm for five minutes on Day 7 and the supernatant was removed by aspiration. The cells were resuspended in 90 µl aliquot of the appropriate growth medium lacking the compound followed by addition of 10 µl of a 10X stock of the same compound at the same concentration. The viability of the Day 11 cells was measured using the CTG assay kit described above in accordance with the manufacturer's instructions. The IC50 values for each compound at each predetermined time point were calculated using Graph pad PRISM software and the results are shown in Table 15. A = ≤250 nM; B = […] - ≤500 nM; and C = >500 nM.

Chain of purified human, His-tagged PRC2 complex (Q15910 whole entry): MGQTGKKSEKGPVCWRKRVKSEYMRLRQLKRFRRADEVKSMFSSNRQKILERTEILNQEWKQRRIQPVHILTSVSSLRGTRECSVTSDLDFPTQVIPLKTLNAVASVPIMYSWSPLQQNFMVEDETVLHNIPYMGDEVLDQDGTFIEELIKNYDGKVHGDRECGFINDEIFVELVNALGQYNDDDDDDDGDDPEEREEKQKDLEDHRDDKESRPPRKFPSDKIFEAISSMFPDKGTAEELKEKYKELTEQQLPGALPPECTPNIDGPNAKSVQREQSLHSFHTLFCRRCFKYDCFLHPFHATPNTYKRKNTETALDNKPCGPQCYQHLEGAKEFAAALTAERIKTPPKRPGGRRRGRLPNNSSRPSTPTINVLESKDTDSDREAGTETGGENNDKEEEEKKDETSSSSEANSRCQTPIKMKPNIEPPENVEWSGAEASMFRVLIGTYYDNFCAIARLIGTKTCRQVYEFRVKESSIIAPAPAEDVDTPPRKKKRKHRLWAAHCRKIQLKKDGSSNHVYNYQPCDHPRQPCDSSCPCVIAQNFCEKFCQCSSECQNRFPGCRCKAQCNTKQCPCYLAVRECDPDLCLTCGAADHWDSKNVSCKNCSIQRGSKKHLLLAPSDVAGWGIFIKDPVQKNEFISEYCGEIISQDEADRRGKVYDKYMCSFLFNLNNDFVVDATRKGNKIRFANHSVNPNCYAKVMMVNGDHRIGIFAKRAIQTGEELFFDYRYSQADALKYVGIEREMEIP
Chain of purified human, His-tagged PRC2 complex (O75530 whole entry): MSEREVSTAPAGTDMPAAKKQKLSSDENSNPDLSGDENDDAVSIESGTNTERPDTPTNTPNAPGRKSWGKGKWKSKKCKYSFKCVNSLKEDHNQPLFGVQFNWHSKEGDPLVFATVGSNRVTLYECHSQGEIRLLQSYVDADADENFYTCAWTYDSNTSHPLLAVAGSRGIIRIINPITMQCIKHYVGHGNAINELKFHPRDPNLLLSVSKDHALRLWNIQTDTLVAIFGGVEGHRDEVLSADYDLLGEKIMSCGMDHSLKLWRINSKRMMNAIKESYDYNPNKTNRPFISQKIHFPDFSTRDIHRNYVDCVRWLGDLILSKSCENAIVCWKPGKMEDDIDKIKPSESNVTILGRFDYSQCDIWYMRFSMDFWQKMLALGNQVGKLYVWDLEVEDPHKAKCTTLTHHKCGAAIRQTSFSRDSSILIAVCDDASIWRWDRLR
Chain of purified human, His-tagged PRC2 complex (Q15022 whole entry partner): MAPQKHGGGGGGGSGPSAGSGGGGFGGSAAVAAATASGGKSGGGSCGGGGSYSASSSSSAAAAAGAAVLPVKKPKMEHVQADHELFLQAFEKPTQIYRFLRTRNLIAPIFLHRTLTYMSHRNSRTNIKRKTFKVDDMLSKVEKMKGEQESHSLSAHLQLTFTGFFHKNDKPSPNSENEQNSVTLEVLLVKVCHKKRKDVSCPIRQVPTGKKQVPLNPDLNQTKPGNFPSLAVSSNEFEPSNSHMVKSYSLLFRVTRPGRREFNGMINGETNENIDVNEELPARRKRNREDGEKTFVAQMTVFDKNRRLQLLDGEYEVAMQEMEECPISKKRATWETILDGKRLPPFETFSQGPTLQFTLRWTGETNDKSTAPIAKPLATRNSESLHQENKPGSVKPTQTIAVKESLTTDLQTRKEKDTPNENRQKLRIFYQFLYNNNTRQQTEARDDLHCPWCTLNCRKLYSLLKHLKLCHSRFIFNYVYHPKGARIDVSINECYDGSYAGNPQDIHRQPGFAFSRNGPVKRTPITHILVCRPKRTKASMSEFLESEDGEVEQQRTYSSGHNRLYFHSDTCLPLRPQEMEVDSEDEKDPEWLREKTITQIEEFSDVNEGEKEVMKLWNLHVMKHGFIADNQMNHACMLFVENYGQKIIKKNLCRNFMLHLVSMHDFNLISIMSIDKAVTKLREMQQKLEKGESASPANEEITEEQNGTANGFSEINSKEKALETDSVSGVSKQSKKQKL
Chain of purified human, His-tagged PRC2 complex (Q6ZN18 whole entry partner): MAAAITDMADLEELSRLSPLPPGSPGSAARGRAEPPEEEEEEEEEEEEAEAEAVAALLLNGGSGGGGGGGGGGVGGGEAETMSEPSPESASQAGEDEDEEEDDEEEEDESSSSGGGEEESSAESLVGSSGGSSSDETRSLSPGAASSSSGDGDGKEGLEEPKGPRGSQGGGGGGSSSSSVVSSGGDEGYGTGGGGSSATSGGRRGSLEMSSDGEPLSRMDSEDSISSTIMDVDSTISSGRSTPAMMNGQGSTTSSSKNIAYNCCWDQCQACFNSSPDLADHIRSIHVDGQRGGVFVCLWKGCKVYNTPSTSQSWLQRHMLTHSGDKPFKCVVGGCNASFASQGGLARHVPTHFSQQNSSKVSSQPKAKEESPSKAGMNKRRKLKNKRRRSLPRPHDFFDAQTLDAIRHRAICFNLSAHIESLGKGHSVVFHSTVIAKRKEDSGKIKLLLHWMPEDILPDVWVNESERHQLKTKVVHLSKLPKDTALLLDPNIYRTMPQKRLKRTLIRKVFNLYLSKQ
Chain of purified human, His-tagged PRC2 complex (Q09028 whole entry partner): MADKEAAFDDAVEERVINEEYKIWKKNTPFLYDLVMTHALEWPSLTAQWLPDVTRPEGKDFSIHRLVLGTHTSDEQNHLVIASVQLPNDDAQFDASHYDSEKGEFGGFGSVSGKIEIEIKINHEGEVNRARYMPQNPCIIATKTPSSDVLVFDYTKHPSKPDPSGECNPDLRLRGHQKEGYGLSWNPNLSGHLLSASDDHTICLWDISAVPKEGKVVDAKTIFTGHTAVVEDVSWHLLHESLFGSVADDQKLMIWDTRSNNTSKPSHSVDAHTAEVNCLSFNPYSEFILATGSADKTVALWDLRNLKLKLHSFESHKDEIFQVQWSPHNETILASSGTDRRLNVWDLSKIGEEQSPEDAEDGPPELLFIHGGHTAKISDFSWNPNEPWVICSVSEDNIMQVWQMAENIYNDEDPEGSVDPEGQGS

Structure (SMILES)	IC50 [1]	IC50 (Karpas 422 cells)
N#Cc1cn2c(NCc3c(F)ccc4c3CCO4)ncc(-c3cnn(C4CCCCO4)c3)c2n1 (stereo not drawn) [Example 118, 5-(((5-fluoro-2,3-dihydrobenzofuran-4-yl)methyl)amino)-8-(1-(tetrahydro-2H-pyran-2-yl)-1H-pyrazol-4-yl)imidazo[1,2-c]pyrimidine-2-carbonitrile]	< 100 nM	> 500 nM
N#Cc1cn2c(NCc3c(F)ccc4c3CCO4)ncc(-c3cccnc3C(F)F)c2n1 [Example 64, 8-(2-(difluoromethyl)pyridin-3-yl)-5-(((5-fluoro-2,3-dihydrobenzofuran-4-yl)methyl)amino)imidazo[1,2-c]pyrimidine-2-carbonitrile]	< 100 nM	250 to 500 nM
N#Cc1cn2c(NCc3c(F)ccc4c3CCO4)ncc(-c3cncc(C(F)(F)F)c3)c2n1 [Example 132, 5-(((5-fluoro-2,3-dihydrobenzofuran-4-yl)methyl)amino)-8-(5-(trifluoromethyl)pyridin-3-yl)imidazo[1,2-c]pyrimidine-2-carbonitrile]	> 500 nM	250 to 500 nM
Cc1cc(-c2cnc(NCc3cccc4c3CCO4)n3cc(C(N)=O)nc23)n(C)n1 [Example 19, 5-(((2,3-dihydrobenzofuran-4-yl)methyl)amino)-8-(1,3-dimethyl-1H-pyrazol-5-yl)imidazo[1,2-c]pyrimidine-2-carboxamide]	< 100 nM	250 to 500 nM
Cc1cc(-c2cnc(NCc3c(F)ccc4occc34)n3cc(C(=O)O)nc23)n(C)n1 [Example 9, 8-(1,3-dimethyl-1H-pyrazol-5-yl)-5-(((5-fluorobenzofuran-4-yl)methyl)amino)imidazo[1,2-c]pyrimidine-2-carboxylic acid]	< 100 nM	> 500 nM
N#Cc1cn2c(NCc3c(F)ccc4c3CCO4)ncc(-c3cccnc3)c2n1 [Example 100, 5-(((5-fluoro-2,3-dihydrobenzofuran-4-yl)methyl)amino)-8-(pyridin-3-yl)imidazo[1,2-c]pyrimidine-2-carbonitrile]	< 100 nM	≤ 250 nM
Cc1nc(OC(C)C)ncc1-c1cnc(NCc2c(F)ccc3c2CCO3)n2cc(C#N)nc12 [Example 89, 5-(((5-fluoro-2,3-dihydrobenzofuran-4-yl)methyl)amino)-8-(2-isopropoxy-4-methylpyrimidin-5-yl)imidazo[1,2-c]pyrimidine-2-carbonitrile]	< 100 nM	≤ 250 nM
Cc1c(-c2cnc(NCc3c(F)ccc4c3CCO4)n3cc(C(N)=O)nc23)cnn1C(C)C [Example 16, 5-(((5-fluoro-2,3-dihydrobenzofuran-4-yl)methyl)amino)-8-(1-isopropyl-5-methyl-1H-pyrazol-4-yl)imidazo[1,2-c]pyrimidine-2-carboxamide]	< 100 nM	250 to 500 nM
Cc1cc(-c2cnc(NCc3c(Cl)ccc4c3CCO4)n3cc(C#N)nc23)n(C)n1 [Example 29, 5-(((5-chloro-2,3-dihydrobenzofuran-4-yl)methyl)amino)-8-(1,3-dimethyl-1H-pyrazol-5-yl)imidazo[1,2-c]pyrimidine-2-carbonitrile]	> 500 nM	> 500 nM
CC(C)(O)Cn1cc(-c2cnc(NCc3c(F)ccc4c3CCO4)n3cc(C#N)nc23)cn1 [Example 121, 5-(((5-fluoro-2,3-dihydrobenzofuran-4-yl)methyl)amino)-8-(1-(2-hydroxy-2-methylpropyl)-1H-pyrazol-4-yl)imidazo[1,2-c]pyrimidine-2-carbonitrile]	< 100 nM	250 to 500 nM
N#Cc1cn2c(NCc3c(F)ccc4c3CCO4)ncc(-c3cnn(C4COC4)c3)c2n1 [Example 106, 5-(((5-fluoro-2,3-dihydrobenzofuran-4-yl)methyl)amino)-8-(1-(oxetan-3-yl)-1H-pyrazol-4-yl)imidazo[1,2-c]pyrimidine-2-carbonitrile]	100 to 500 nM	> 500 nM

The remaining lines, values ahead:

IC50 [1]	IC50 (Karpas 422 cells)	Structure (SMILES)
< 100 nM	250 to 500 nM	Cc1cncc(-c2cnc(NCc3c(F)ccc4c3CCO4)n3cc(C#N)nc23)c1 [Example 96, 5-(((5-fluoro-2,3-dihydrobenzofuran-4-yl)methyl)amino)-8-(5-methylpyridin-3-yl)imidazo[1,2-c]pyrimidine-2-carbonitrile]
< 100 nM	≤ 250 nM	Cc1cc(C(=O)N(C)C)ccc1-c1cnc(NCc2c(F)ccc3c2CCO3)n2cc(C#N)nc12 [Example 44, 4-(2-cyano-5-(((5-fluoro-2,3-dihydrobenzofuran-4-yl)methyl)amlno)lmldazo[1,2-c]pyrlmldln-8-yl)-N,N,3-trimethylbenzamide]
100 to 500 nM	≤ 250 nM	Cc1cc(CN(C)C)c(F)cc1-c1cnc(NCc2c(F)ccc3c2CCO3)n2cc(C#N)nc12 [Example 84, 8-(4-((dimethylamino)methyl)-5-fluoro-2-methylphenyl)-5-(((5-fluoro-2,3-dihydrobenzofuran-4-yl)methyl)amino)imidazo[1,2-c]pyrimidine-2-carbonitrile]
< 100 nM	≤ 250 nM	CN(C)Cc1ccc(-c2cnc(NCc3c(F)ccc4c3CCO4)n3cc(C#N)nc23)c(Cl)c1 [Example 33, 8-(2-chloro-4-((dimethylamino)methyl)phenyl)-5-(((5-fluoro-2,3-dihydrobenzofuran-4-yl)methyl)amino)imidazo[1,2-c]pyrimidine-2-carbonitrile]
100 to 500 nM	≤ 250 nM	CN(C)Cc1c(F)cc(-c2cnc(NCc3c(F)ccc4c3CCO4)n3cc(C#N)nc23)cc1F [Example 149, 8-(4-((dimethylamino)methyl)-3,5-difluorophenyl)-5-(((5-fluoro-2,3-dihydrobenzofuran-4-yl)methyl)amino)imidazo[1,2-c]pyrimidine-2-carbonitrile]
100 to 500 nM	≤ 250 nM	N#Cc1cn2c(NCc3c(F)ccc4c3CCO4)ncc(-c3ccc(CO)nc3)c2n1 [Example 147, 5-(((5-fluoro-2,3-dihydrobenzofuran-4-yl)methyl)amino)-8-(6-(hydroxymethyl)pyridin-3-yl)imidazo[1,2-c]pyrimidine-2-carbonitrile]
< 100 nM	≤ 250 nM	CN(C)Cc1ccc(-c2cnc(NCc3c(F)ccc4c3CCO4)n3cc(C#N)nc23)c(F)c1F [Example 37, 8-(4-((dimethylamino)methyl)-2,3-difluorophenyl)-5-(((5-fluoro-2,3-dihydrobenzofuran-4-yl)methyl)amino)imidazo[1,2-c]pyrimidine-2-carbonitrile]
< 100 nM	≤ 250 nM	COc1ncc(-c2cnc(NCc3c(F)ccc4c3CCO4)n3cc(C#N)nc23)c(C)n1 [Example 88, 5-(((5-fluoro-2,3-dihydrobenzofuran-4-yl)methyl)amino)-8-(2-methoxy-4-methylpyrimidin-5-yl)imidazo[1,2-c]pyrimidine-2-carbonitrile]
< 100 nM	≤ 250 nM	CN(C)Cc1ncc(-c2cnc(NCc3c(F)ccc4c3CCO4)n3cc(C#N)nc23)cc1F [Example 40, 8-(6-((dimethylamino)methyl)-5-fluoropyridin-3-yl)-5-(((5-fluoro-2,3-dihydrobenzofuran-4-yl)methyl)amino)imidazo[1,2-c]pyrimidine-2-carbonitrile]
< 100 nM	> 500 nM	Cc1nn(C)cc1-c1cnc(NCc2c(F)ccc3c2CCO3)n2cc(C#N)nc12 [Example 72, 8-(1,3-dimethyl-1H-pyrazol-4-yl)-5-(((5-fluoro-2,3-dihydrobenzofuran-4-yl)methyl)amino)imidazo[1,2-c]pyrimidine-2-carbonitrile]
< 100 nM	≤ 250 nM	Cc1ccncc1-c1cnc(NCc2c(F)ccc3c2CCO3)n2cc(C#N)nc12 [Example 98, 5-(((5-fluoro-2,3-dihydrobenzofuran-4-yl)methyl)amino)-8-(4-methylpyridin-3-yl)imidazo[1,2-c]pyrimidine-2-carbonitrile]
< 100 nM	> 500 nM	CCOc1ncccc1-c1cnc(NCc2c(F)ccc3c2CCO3)n2cc(C#N)nc12 [Example 124, 8-(2-ethoxypyridin-3-yl)-5-(((5-fluoro-2,3-dihydrobenzofuran-4-yl)methyl)amino)imidazo[1,2-c]pyrimidine-2-carbonitrile]
< 100 nM	≤ 250 nM	Cn1nccc1-c1cnc(NCc2c(F)ccc3c2CCO3)n2cc(C#N)nc12 [Example 114, 5-(((5-fluoro-2,3-dihydrobenzofuran-4-yl)methyl)amino)-8-(1-methyl-1H-pyrazol-5-yl)imidazo[1,2-c]pyrimidine-2-carbonitrile]
